The source of these data is patent US8183262B2, “Pyridine derivatives as mGluR2 antagonists” (Hoffmann-La Roche Inc., priority 2007, dated 2012).

Some results are limits rather than exact numbers.

For `Nc1cccc(-c2cccc(-c3nc(-c4ccc(C(F)(F)F)cc4)cc(C(F)(F)F)n3)c2)c1` [Example 220, 3′-[4-Trifluoromethyl-6-(4-trifluoromethyl-phenyl)-pyrimidin-2-yl]-biphenyl-3-ylamine], the melting point (as a rule, the temperature of the solid-liquid transition) was 156.5 °C.
The result for `Cc1cc(-c2ccc(Cl)c(C)c2)nc(-n2cnc(-c3cccc(S(N)(=O)=O)c3)c2)n1` [Example 224, 3-{1-[4-(4-Chloro-3-methyl-phenyl)-6-methyl-pyrimidin-2-yl]-1H-imidazol-4-yl}-benzenesulfonamide] reads 219 °C (dec.); that for `Cc1cc(-c2ccc(Cl)c(C)c2)nc(-n2cnc(-c3ccc(S(N)(=O)=O)s3)c2)n1` [Example 225, 5-{1-[4-(4-Chloro-3-methyl-phenyl)-6-methyl-pyrimidin-2-yl]-1H-imidazol-4-yl}-thiophene-2-sulfonic acid amide], 267 °C (dec.); that for `Cc1cc(-c2ccc(Cl)c(C)c2)nc(-n2cnc(-c3ccc(N)nc3)c2)n1` [Example 226, 5-{1-[4-(4-Chloro-3-methyl-phenyl)-6-methyl-pyrimidin-2-yl]-1H-imidazol-4-yl}-pyridin-2-ylamine], 202 °C (dec.).
The result for `Cc1cc(-c2ccc(Cl)cc2)cc(-c2cccc(-c3ccc(N)nc3)c2)n1` [Example 229, 5-{3-[4-(4-Chloro-phenyl)-6-methyl-pyridin-2-yl]-phenyl}-pyridin-2-ylamine] reads 76 to 95 °C.
`Cc1cc(-c2ccc(C(F)(F)F)cc2)cc(-c2nc(-c3ccc(N)nc3)cs2)n1` [Example 230, 5-{2-[6-Methyl-4-(4-trifluoromethyl-phenyl)-pyridin-2-yl]-thiazol-4-yl}-pyridin-2-ylamine] registered a melting point of 191 °C.
The result for `Cc1cc(-c2ccc(C(F)(F)F)cc2)cc(-c2nc(-c3cnc(N)nc3)cs2)n1` [Example 231, 5-{2-[6-Methyl-4-(4-trifluoromethyl-phenyl)-pyridin-2-yl]-thiazol-4-yl}-pyrimidin-2-ylamine] reads greater than 250 °C; that for `Nc1ccc(-c2cccc(-c3cc(-c4ccc(C(F)(F)F)cc4)cc(C(F)(F)F)n3)c2)cn1` [Example 232, 5-{3-[6-Trifluoromethyl-4-(4-trifluoromethyl-phenyl)-pyridin-2-yl]-phenyl}-pyridin-2-ylamine], 166 °C; that for `Nc1ncc(-c2cccc(-c3cc(-c4ccc(C(F)(F)F)cc4)cc(C(F)(F)F)n3)c2)cn1` [Example 233, 5-{3-[6-Trifluoromethyl-4-(4-trifluoromethyl-phenyl)-pyridin-2-yl]-phenyl}-pyrimidin-2-ylamine], 260 °C.
Consider `Nc1ncc(-c2cccc(-c3cc(-c4ccc(Cl)cc4)cc(C(F)(F)F)n3)c2)cn1` [Example 234, 5-{3-[4-(4-Chloro-phenyl)-6-trifluoromethyl-pyridin-2-yl]-phenyl}-pyrimidin-2-ylamine], for which the melting point was found to be 239 °C.
The result for `Nc1ccc(-c2cccc(-c3cc(-c4ccc(Cl)cc4)cc(C(F)(F)F)n3)c2)cn1` [Example 235, 5-{3-[4-(4-Chloro-phenyl)-6-trifluoromethyl-pyridin-2-yl]-phenyl}-pyridin-2-ylamine] reads 172 °C.
The result for `Cc1cc(-c2ccc(C(F)(F)F)cc2)cc(-c2nc(-c3ccc(N)nc3)no2)n1` [Example 236, 5-{5-[6-Methyl-4-(4-trifluoromethyl-phenyl)-pyridin-2-yl]-[1,2,4]oxadiazol-3-yl}-pyridin-2-ylamine] reads 163 °C; that for `Nc1ccc(-c2noc(-c3cc(C(F)(F)F)cc(-c4ccc(C(F)(F)F)cc4)n3)n2)cn1` [Example 238, 5-{5-[4-Trifluoromethyl-6-(4-trifluoromethyl-phenyl)-pyridin-2-yl]-[1,2,4]oxadiazol-3-yl}-pyridin-2-ylamine], 229 °C.
The same measure for `Cc1cc(-c2ccc(C(F)(F)F)cc2)cc(-c2ccnc(-c3ccc(N)nc3)n2)n1` [Example 239, 5-{4-[6-Methyl-4-(4-trifluoromethyl-phenyl)-pyridin-2-yl]-pyrimidin-2-yl}-pyridin-2-ylamine]: 191 °C.
Take `Cc1cc(-c2ccc(C(F)(F)F)cc2)cc(-c2ccnc(-c3cnc(N)nc3)n2)n1` [Example 240, 4-[6-Methyl-4-(4-trifluoromethyl-phenyl)-pyridin-2-yl]-[2,5′]bipyrimidinyl-2′-ylamine]: the melting point amounted to 264 °C.
Turning to `Cc1cc(-c2ccc(C(F)(F)F)cc2)cc(-c2nccc(-c3ccc(N)nc3)n2)n1` [Example 241, 5-{2-[6-Methyl-4-(4-trifluoromethyl-phenyl)-pyridin-2-yl]-pyrimidin-4-yl}-pyridin-2-ylamine], the melting point was found to be 258 °C.
The result for `Cc1cc(-c2ccc(Cl)c(Cl)c2)cc(-n2cnc(-c3ccc(N)nc3)c2)n1` [Example 246, 5-{1-[4-(3,4-Dichloro-phenyl)-6-methyl-pyridin-2-yl]-1H-imidazol-4-yl}-pyridin-2-ylamine] reads 245 °C.
The same measure for `Cc1cc(-c2ccc(C(F)(F)F)cc2)cc(-c2cccc(-c3cncc(S(N)(=O)=O)c3)c2)n1` [Example 248, 5-{3-[6-Methyl-4-(4-trifluoromethyl-phenyl)-pyridin-2-yl]-phenyl}-pyridine-3-sulfonic acid amide]: greater than 250 °C; for `Cc1cc(-c2ccc(Cl)c(Cl)c2)cc(-c2cccc(-c3cnc(N)nc3)c2)n1` [Example 250, 5-{3-[4-(3,4-Dichloro-phenyl)-6-methyl-pyridin-2-yl]-phenyl}-pyrimidin-2-ylamine]: 188 °C; for `Cc1cc(-c2ccc(C(F)(F)F)cc2)cc(-c2nccs2)n1` [Example 251, 2-Methyl-6-thiazol-2-yl-4-(4-trifluoromethyl-phenyl)-pyridine]: 103 °C.
The result for `Cc1cc(-c2ccc(C(F)(F)F)cc2)cc(-c2ccc(-c3ccc(N)nc3)s2)n1` [Example 252, 5-{5-[6-Methyl-4-(4-trifluoromethyl-phenyl)-pyridin-2-yl]-thiophen-2-yl}-pyridin-2-ylamine] reads 196 °C; that for `Cc1cc(-c2ccc(C(F)(F)F)cc2)cc(-c2ccc(-c3cnc(N)nc3)s2)n1` [Example 253, 5-{5-[6-Methyl-4-(4-trifluoromethyl-phenyl)-pyridin-2-yl]-thiophen-2-yl}-pyrimidin-2-ylamine], greater than 250 °C.
The compound `Cc1cc(-c2ccc(Cl)c(Cl)c2)cc(-c2ccc(N3C=CC=CC3N)s2)n1` (stereo not shown) [Example 254, 1-{5-[4-(3,4-Dichloro-phenyl)-6-methyl-pyridin-2-yl]-thiophen-2-yl}-pyridin-2-ylamine] displayed a melting point of 180 °C.
The same measure for `Cc1cc(-c2ccc(Cl)c(Cl)c2)cc(-c2ccc(-c3cnc(N)nc3)s2)n1` [Example 255, 5-{5-[4-(3,4-Dichloro-phenyl)-6-methyl-pyridin-2-yl]-thiophen-2-yl}-pyrimidin-2-ylamine]: 237 °C; for `Cc1cc(-c2ccc(C(F)(F)F)cc2)cc(-c2cc(-c3ccc(N)nc3)cs2)n1` [Example 256, 5-{5-[6-Methyl-4-(4-trifluoromethyl-phenyl)-pyridin-2-yl]-thiophen-3-yl}-pyridin-2-ylamine]: 175 °C.
